Data on 26 compounds can be found in US20090004185A1, “AMINO-SUBSTITUTED QUINAZOLINE DERIVATIVES AS INHIBITORS OF BETA-CATENIN/TCF-4 PATHWAY AND CANCER TREATMENT AGENTS” (WYETH, priority 2007, published 2009).

Where a name gives a salt, the structure may show the parent alone.

One data set relates to β-catenin/Tcf-4. Description: cells. In kind it is cell-based. The note with it: 24 hours of incubation with compound, ratio Firefly/Renilla luciferase. An outline of the steps:
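SW480-derived lines with integrated reporters (Tcf-4-driven firefly luciferase; SV40 firefly as specificity control; SV40 Renilla for cell number/toxicity), treated 24 hours with titrated compounds, final 0.316% DMSO. Dual-luciferase read-out; firefly/Renilla ratio as % of control, duplicate plates, IC50 (nM) from curve fit.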

The subject of a further data set is SV40-Luc. Description: SV40-Luc control luciferase reporter assay, SV 5A8 cell line (SV40-Luc and SV40-R-Luc), control for non-specific inhibitors. The class given is cell-based, human. The note with it: SV 5A8 cells derived from SW480, 24 hours of incubation with compound, ratio Firefly/Renilla luciferase. Put shortly: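 Stable SW480 reporter clones are exposed to compound dilutions for 24 h at 0.316% DMSO. Firefly signal, Tcf-4- or SV40-driven, is divided by SV40-Renilla signal, and IC50 is derived from this ratio relative to control.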
A general note: Reporter assays use an easily measured gene product as a stand-in for the process of interest.

Where [1] appears, read: Homo sapiens, SW480, 24 h, Tcf 33.13 cells derived from SW480.
[2] abbreviates: Homo sapiens, Tcf22C11, 24 h, Tcf 22C11 cells derived from SW480.
Where [3] appears, read: Tcf 22C11 cells derived from SW480.
The mark [4] stands for this setting: Tcf 33.13 cells derived from SW480.

In the case of `C=Cc1ccc2c(NCc3ccc(NC(=O)c4ccc(F)cc4)cc3)nc(N(C)C)nc2c1` (as salt: HCl) [Example 87, N-[4-({[2-(dimethylamino)-7-vinylquinazolin-4-yl]amino}methyl)phenyl]-4-fluorobenzamide], the melting point amounted to 145 °C.

Regarding `CCc1ccc2c(NCc3ccc(NC(=O)c4ccc(F)cc4)cc3)nc(N(C)C)nc2c1` (as salt: HCl) [Example 88, N-[4-({[2-(dimethylamino)-7-ethylquinazolin-4-yl]amino}methyl)phenyl]-4-fluorobenzamide], the melting point amounted to 270 °C.

The compound `CN(C)c1nc(NCc2ccc(NC(=O)c3ccc(F)cc3)cc2)c2ccc(C#N)cc2n1` (as salt: HCl) [Example 89, N-[4-({[7-cyano-2-(dimethylamino)quinazolin-4-yl]amino}methyl)phenyl]-4-fluorobenzamide] displayed a melting point of 150 °C.

As for `CN(C)c1nc(NCc2ccc(NC(=O)c3ccc(F)cc3)cc2)c2ccc(CN)cc2n1` (as salt: HCl) [Example 90, N-[4-({[7-(aminomethyl)-2-(dimethylamino)quinazolin-4-yl]amino}methyl)phenyl]-4-fluorobenzamide], the melting point was 245 °C.

The compound `CN(C)Cc1ccc2c(NCc3ccc(NC(=O)c4ccc(F)cc4)cc3)nc(N(C)C)nc2c1` (as salt: HCl) [Example 91, N-{4-[({2-(dimethylamino)-7-[(dimethylamino)methyl]quinazolin-4-yl}amino)methyl]phenyl}-4-fluorobenzamide] came in with a melting point of 94 °C.

With `CN(C)c1nc(NCc2ccc(NC(=O)c3ccc(F)cc3)cc2)c2ccc(CO)cc2n1` (as salt: HCl) [Example 93, N-[4-({[2-(dimethylamino)-7-(hydroxymethyl)quinazolin-4-yl]amino}methyl)phenyl]-4-fluorobenzamide], the melting point is 158 °C.

The compound `CC(O)c1ccc2c(NCc3ccc(NC(=O)c4ccc(F)cc4)cc3)nc(N(C)C)nc2c1` (stereo not shown) (as salt: HCl) [Example 95, N-[4-({[2-(dimethylamino)-7-(1-hydroxyethyl)quinazolin-4-yl]amino}methyl)phenyl]-4-fluorobenzamide] showed a melting point of 232 °C.

For the compound `C/C=C/c1ccc2c(NCc3ccc(NC(=O)c4ccc(F)cc4)cc3)nc(N(C)C)nc2c1` (as salt: HCl) [Example 96, N-{4-[({2-(dimethylamino)-7-[(1E)-prop-1-en-1-yl]quinazolin-4-yl}amino)methyl]phenyl}-4-fluorobenzamide], the melting point came to 268 °C.

The compound `C/C=C\c1ccc2c(NCc3ccc(NC(=O)c4ccc(F)cc4)cc3)nc(N(C)C)nc2c1` (as salt: HCl) [Example 97, N-{4-[({2-(dimethylamino)-7-[(1Z)-prop-1-en-1-yl]quinazolin-4-yl}amino)methyl]phenyl}-4-fluorobenzamide] came in with a melting point of 246 °C.

`CN(C)c1nc(NCc2ccc(NC(=O)c3ccc(F)cc3)cc2)c2ccc(-c3ccccc3C=O)cc2n1` (as salt: HCl) [Example 98, N-[4-({[2-(dimethylamino)-7-(2-formylphenyl)quinazolin-4-yl]amino}methyl)phenyl]-4-fluorobenzamide] showed a melting point of 128 °C.

Turning to `Cc1ccc2c(NCc3ccc(NC(=O)C4CCN(Cc5cc(F)ccc5F)CC4)cc3)nc(N(C)C)nc2c1` [Example 262, 1-(2,5-difluorobenzyl)-N-[4-({[2-(dimethylamino)-7-methylquinazolin-4-yl]amino}methyl)phenyl]piperidine-4-carboxamide], the IC50 in the data set with β-catenin/Tcf-4 (setting [1]) was 184 nM; in the data set with β-catenin/Tcf-4 (setting [2]), 213 nM; in the data set on SV40-Luc (Homo sapiens, SV5A8, 24 h), greater than 4590 nM.

As for `Cc1ccc2c(NCc3ccc(NC(=O)C4CCN(Cc5ccc(Cl)c(F)c5)CC4)cc3)nc(N(C)C)nc2c1` [Example 263, 1-(4-chloro-3-fluorobenzyl)-N-[4-({[2-(dimethylamino)-7-methylquinazolin-4-yl]amino}methyl)phenyl]piperidine-4-carboxamide], the IC50 in the data set on β-catenin/Tcf-4 (setting [1]) is 410 nM; in the data set on β-catenin/Tcf-4 (setting [2]), 422 nM; with SV40-Luc (Homo sapiens, SV5A8, 24 h), greater than 1970 nM.

In the case of `CNc1nc(NCc2ccc(NC(=O)c3ccc(Br)cc3)cc2)c2cccc(C)c2n1` [Example 265, 4-bromo-N-[4-({[8-methyl-2-(methylamino)quinazolin-4-yl]amino}methyl)phenyl]benzamide], the IC50 was 933 nM in the data set with β-catenin/Tcf-4 (setting [1]); 1140 nM in the data set with β-catenin/Tcf-4 (setting [2]); greater than 4230 nM in the data set on SV40-Luc (Homo sapiens, SV5A8, 24 h).

As to `CNc1nc(NCc2ccc(NC(=O)c3ccc(C#N)cc3)cc2)c2cccc(C)c2n1` [Example 266, 4-cyano-N-[4-({[8-methyl-2-(methylamino)quinazolin-4-yl]amino}methyl)phenyl]benzamide], the half-inhibitory concentration (IC50) is 962 nM with β-catenin/Tcf-4 (setting [1]); 1100 nM in the data set with β-catenin/Tcf-4 (setting [2]); greater than 4660 nM in the data set on SV40-Luc (Homo sapiens, SV5A8, 24 h).

As to `Cc1ccc2c(N[C@@H](C)c3ccc(NC(=O)C4CCN(Cc5ccc(F)c(F)c5)CC4)cc3)nc(N(C)C)nc2c1` [Example 268, 1-(3,4-difluorobenzyl)-N-[4-((1S)-1-{[2-(dimethylamino)-7-methylquinazolin-4-yl]amino}ethyl)phenyl]piperidine-4-carboxamide], the IC50 is 203 nM with β-catenin/Tcf-4 (setting [1]); 215 nM in the data set with β-catenin/Tcf-4 (setting [2]); greater than 7870 nM with SV40-Luc (Homo sapiens, SV5A8, 24 h).

`Cc1ccc2c(N[C@@H](C)c3ccc(NC(=O)c4ccc(Cl)nc4)cc3)nc(N(C)C)nc2c1` [Example 269, (S)-6-chloro-N-(4-(1-(2-(dimethylamino)-7-methylquinazolin-4-ylamino)ethyl)phenyl)nicotinamide]: the IC50 was 319 nM with β-catenin/Tcf-4 (setting [1]); 439 nM with β-catenin/Tcf-4 (setting [2]); greater than 11300 nM with SV40-Luc (Homo sapiens, SV5A8, 24 h).

Turning to `Cc1ccc2c(N[C@H](C)c3ccc(NC(=O)c4ccc(Cl)nc4)cc3)nc(N(C)C)nc2c1` [Example 270, (R)-6-chloro-N-(4-(1-(2-(dimethylamino)-7-methylquinazolin-4-ylamino)ethyl)phenyl)nicotinamide], the 50% inhibitory concentration (IC50) in the data set on β-catenin/Tcf-4 (setting [1]) is 372 nM; with β-catenin/Tcf-4 (setting [2]), 429 nM; with SV40-Luc (Homo sapiens, SV5A8, 24 h), greater than 10100 nM.

For `Cc1ccc2c(N[C@@H](C)c3ccc(NC(=O)c4ccc(F)cc4)cc3)nc(N(C)C)nc2c1` [Example 271, (S)—N-(4-(1-(2-(dimethylamino)-7-methylquinazolin-4-ylamino)ethyl)phenyl)-4-fluorobenzamide], the IC50 in the data set on β-catenin/Tcf-4 (setting [1]) was 1080 nM; with β-catenin/Tcf-4 (setting [2]), 970 nM; in the data set on SV40-Luc (Homo sapiens, SV5A8, 24 h), greater than 5640 nM.

Regarding `Cc1ccc2c(N[C@H](C)c3ccc(NC(=O)c4ccc(F)cc4)cc3)nc(N(C)C)nc2c1` [Example 272, (R)—N-(4-(1-(2-(dimethylamino)-7-methylquinazolin-4-ylamino)ethyl)phenyl)-4-fluorobenzamide], the IC50 in the data set with β-catenin/Tcf-4 (setting [1]) was 986 nM; in the data set on β-catenin/Tcf-4 (setting [2]), 894 nM; in the data set on SV40-Luc (Homo sapiens, SV5A8, 24 h), greater than 5420 nM.

`Cc1cccc2c(N[C@@H](C)c3ccc(NC(=O)c4ccc(Cl)nc4)cc3)nc(N(C)C)nc12` [Example 273, (S)-6-chloro-N-(4-(1-(2-(dimethylamino)-8-methylquinazolin-4-ylamino)ethyl)phenyl)nicotinamide]: the IC50 in the data set on β-catenin/Tcf-4 (setting [1]) is 3950 nM; with β-catenin/Tcf-4 (setting [2]), greater than 2340 nM; with SV40-Luc (Homo sapiens, SV5A8, 24 h) it was greater than 9360 nM.

As to `Cc1ccc2nc(N(C)C)nc(N[C@@H](C)c3ccc(NC(=O)c4ccc(Cl)nc4)cc3)c2c1` [Example 274, (S)-6-chloro-N-(4-(1-(2-(dimethylamino)-6-methylquinazolin-4-ylamino)ethyl)phenyl)nicotinamide], the IC50 in the data set with β-catenin/Tcf-4 (setting [1]) was 1840 nM; in the data set with β-catenin/Tcf-4 (setting [2]), 1010 nM; with SV40-Luc (Homo sapiens, SV5A8, 24 h), greater than 9360 nM.

In the case of `CNc1nc(N[C@@H](C)c2ccc(NC(=O)c3ccc(F)cc3)cc2)c2cccc(C)c2n1` [Example 275, (S)-4-fluoro-N-(4-(1-(8-methyl-2-(methylamino)quinazolin-4-ylamino)ethyl)phenyl)benzamide], the IC50 in the data set on β-catenin/Tcf-4 (setting [1]) was 549 nM; in the data set on β-catenin/Tcf-4 (setting [2]), 522 nM; with SV40-Luc (Homo sapiens, SV5A8, 24 h), greater than 1240 nM.

With `CNc1nc(N[C@H](C)c2ccc(NC(=O)c3ccc(F)cc3)cc2)c2cccc(C)c2n1` [Example 276, (R)-4-fluoro-N-(4-(1-(8-methyl-2-(methylamino)quinazolin-4-ylamino)ethyl)phenyl)benzamide], the concentration for half-maximal inhibition (IC50) was 494 nM in the data set with β-catenin/Tcf-4 (setting [1]); 653 nM in the data set with β-catenin/Tcf-4 (setting [2]); greater than 2490 nM in the data set with SV40-Luc (Homo sapiens, SV5A8, 24 h).

Turning to “N-(4-{[(2-azetidin-1-yl-7-methylquinazolin-4-yl)amino]methyl}phenyl)-1-benzylpiperidine-4-carboxamide [Example 137]”, the IC50 in the data set with β-catenin/Tcf-4 (setting [3]) is 1260 nM; with β-catenin/Tcf-4 (setting [4]) it was 1130 nM; in the data set on SV40-Luc it was greater than 17300 nM.

For the compound “N-[4-({[6-nitro-2-(methylamino)quinazolin-4-yl]amino}methyl)phenyl]nicotinamide [Example 188]”, the half-maximal inhibitory concentration (IC50) with β-catenin/Tcf-4 (setting [3]), with β-catenin/Tcf-4 (setting [4]) and with SV40-Luc was greater than 23300 nM throughout.

As for “N-{4-[({6,8-dimethyl-2-[(3S)-3-methylpiperazin-1-yl]quinazolin-4-yl}amino)methyl]phenyl}-4-fluorobenzamide [Example 50]”, the half-inhibitory concentration (IC50) in the data set on β-catenin/Tcf-4 (setting [3]) is greater than 1250 nM; in the data set with β-catenin/Tcf-4 (setting [4]) it was 1490 nM; in the data set on SV40-Luc, greater than 5010 nM.

A word on the melting point: it is the temperature, or range, at which the solid turns liquid. The IC50 is the point on the concentration scale where inhibition reaches its midpoint.
